Laboratory results as given in EP1717249A1, “Peptides containing a cholesterol recognition sequence and their uses” (GEORGETOWN UNIVERSITY, priority 1998, dated 1999).

Assays:
recombinant mPBR = target: T1, recombinant mPBR (Mus musculus, UniProt P50637); assay: 3H-PK 11195 radioligand binding to recombinant PBR (wild-type and mutated) expressed in IPTG-induced E. coli; settings: 3H-PK 11195 binding to IPTG-induced bacteria expressing mouse PBR, Scatchard analysis
T1 construct: made in house; host or cells: Escherichia coli BL21(DE3), IPTG-induced
Excerpt: Construction of the mouse PBR expression vector (pET15bPBR) and Expression of Recombinant PBR in bacteria- The pET system (Novagen, Madison, WI) was used to express the MA-10 mouse PBR (mPBR) recombinant protein. […] This mPBR fragment was inserted into pET15b vector and linearized with NdeI and XhoI downstream of the T71ac promoter. Recombinant mPBR expression vector was used to transform the BL21(DE3) Escherichia coli strain (Novagen) where the expression of recombinant mPBR protein was induced by 1mM isopropyl-1-thiol-β-D-galactopyranoside (IPTG). PBR protein expression was monitored by SDS-PAGE followed by Coomassie Blue staining or immunoblot analysis using anti-PBR antiserum (Amri et al. 1996, supra). Binding specificity of the IPTG-induced PBR in E. coli was determined in binding studies where specific binding of ^3H-PK 11195 (1.0 nM) was measured in the presence of the indicated concentrations of the indicated ligands.
Radioligand binding assays- ^3H-1-(2-chlorophenyl)-N-methyl-N-(1-methyl-propyl)-3-isoquinolinecarboxamide (PK 11195) binding studies were performed as we previously described (Papadopoulos, V. et al. 1990, J. Biol. Chem. 265: 3772-3779; Garnier, M. et al. 1994, Mol. Pharm. 45:201-211). […]

PBR = target: T2, PBR (Mus musculus, UniProt P50637); assay: Ligand-induced release of 3H-cholesterol from membranes of IPTG-induced transformed bacteria; format: biochemical; settings: cholesterol-loaded bacterial membranes (Fig. 3F)
T2 construct: made in house; host or cells: Escherichia coli BL21(DE3), IPTG-induced
Description: ^3H-Cholesterol uptake by E. coli cells was examined using the indicated concentrations of control or IPTG-treated transformed bacteria incubated in the presence of 6.7 nM ^3H-cholesterol (50.0 Ci/mmol) for 60 min at 37°C. Specific cholesterol uptake is defined as IPTG-induced minus basal values.

isolated mitochondria = settings: cited from earlier work

CCC(C)N(C)C(=O)c1cc2ccccc2c(-c2ccccc2Cl)n1 (stereo not drawn) [PK 11195, 1-(2-chlorophenyl)-N-methyl-N-(1-methyl-propyl)-3-isoquinolinecarboxamide]
Bmax (recombinant mPBR): 0.23 pmol/mg protein
3H-cholesterol released from cholesterol-loaded bacterial membranes (PBR): cholesterol was liberated from the membranes

TTN: naturally occurring processing product of DBI, the triakontatetrapeptide TTN (DBI17-50) (KTKPSDEEMLFIYGHYKQATVGDINTERPGMLDF; Triakontatetraneuropeptide; UniProt P07108 17-50, looked up, fragment)
intramitochondrial cholesterol transport and pregnenolone formation (mitochondrial steroidogenesis) (isolated mitochondria): able to mimic the effect of DBI
